Source: ChEMBL document CHEMBL1777793, “Synthesis of biotinylated muramyl tripeptides with NOD2-stimulating activity” (Bioorg Med Chem Lett, 2011)
The source made the active and inactive calls. The rule behind the calls is not given here.

Target: Nucleotide-binding oligomerization domain-containing protein 2 (Homo sapiens) (UniProt Q9HC29)
Experiment: Activation of NOD2 expressed in HEK293 cells assessed as increase in IL8 secretion measured at 0.01 to 0.7 uM after 18 hrs by ELISA
Format: cell-based

Chain of Nucleotide-binding oligomerization domain-containing protein 2 (Homo sapiens) (Q9HC29 whole entry, the tested form may be a part): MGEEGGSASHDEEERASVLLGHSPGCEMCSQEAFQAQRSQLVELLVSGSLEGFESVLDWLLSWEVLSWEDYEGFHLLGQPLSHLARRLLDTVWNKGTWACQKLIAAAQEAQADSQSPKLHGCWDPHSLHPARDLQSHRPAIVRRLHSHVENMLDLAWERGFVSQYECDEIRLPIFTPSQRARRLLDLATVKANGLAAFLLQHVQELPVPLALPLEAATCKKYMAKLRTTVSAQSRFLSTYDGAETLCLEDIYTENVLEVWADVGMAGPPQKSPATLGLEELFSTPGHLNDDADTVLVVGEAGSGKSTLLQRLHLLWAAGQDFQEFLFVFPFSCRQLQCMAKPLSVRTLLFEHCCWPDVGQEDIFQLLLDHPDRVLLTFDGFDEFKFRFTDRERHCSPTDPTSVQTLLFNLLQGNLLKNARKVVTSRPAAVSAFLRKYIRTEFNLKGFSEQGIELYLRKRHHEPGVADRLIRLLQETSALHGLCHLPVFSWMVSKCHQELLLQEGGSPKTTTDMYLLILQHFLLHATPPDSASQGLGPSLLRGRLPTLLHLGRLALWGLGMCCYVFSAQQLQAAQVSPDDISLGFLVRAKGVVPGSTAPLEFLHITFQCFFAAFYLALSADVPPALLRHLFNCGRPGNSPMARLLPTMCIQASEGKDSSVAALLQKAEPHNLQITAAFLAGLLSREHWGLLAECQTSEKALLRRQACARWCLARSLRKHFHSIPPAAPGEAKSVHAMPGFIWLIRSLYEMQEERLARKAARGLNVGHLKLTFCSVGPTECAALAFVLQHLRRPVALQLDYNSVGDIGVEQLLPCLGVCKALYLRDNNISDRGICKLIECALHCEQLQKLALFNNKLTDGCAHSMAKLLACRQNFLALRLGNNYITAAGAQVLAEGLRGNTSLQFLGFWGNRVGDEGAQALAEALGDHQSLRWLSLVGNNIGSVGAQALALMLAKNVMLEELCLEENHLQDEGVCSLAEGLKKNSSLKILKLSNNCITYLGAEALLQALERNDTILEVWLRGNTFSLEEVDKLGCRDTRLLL

| Compound | Activity |
| --- | --- |
| CC(=O)N[C@H]1C(O)O[C@H](CO)[C@@H](O)[C@@H]1O[C@H](C)C(=O)N[C@@H](C)C(=O)N[C@H](CCC(=O)N[C@@H](CCC[C@@H](N)C(=O)O)C(=O)O)C(=O)O (some centres not stated) | inactive |
| CC(=O)N[C@H]1C(O)O[C@H](CO)[C@@H](O)[C@@H]1O[C@H](C)C(=O)N[C@@H](C)C(=O)N[C@H](CCC(=O)N[C@@H](CCCCNC(=O)CCCCCNC(=O)CCCCCNC(=O)CCCC[C@@H]1SC[C@@H]2NC(=O)N[C@@H]21)C(=O)O)C(=O)O (some centres not stated) | Active |
| CC(=O)N[C@H]1C(O)O[C@H](COC(=O)CCCCCNC(=O)CCCCCNC(=O)CCCCCNC(=O)CCCC[C@@H]2SC[C@@H]3NC(=O)N[C@@H]32)[C@@H](O)[C@@H]1O[C@H](C)C(=O)N[C@@H](C)C(=O)N[C@H](CCC(=O)O)C(N)=O (some centres not stated) | Active |
| CC(=O)N[C@H]1[C@@H](OP(=O)(O)OP(=O)(O)OC[C@H]2O[C@@H](n3ccc(=O)[nH]c3=O)[C@H](O)[C@@H]2O)O[C@H](CO)[C@@H](O)[C@@H]1O[C@H](C)C(=O)N[C@@H](C)C(=O)N[C@H](CCC(=O)N[C@@H](CCC[C@@H](NC(=O)CCCC[C@@H]1SC[C@@H]2NC(=O)N[C@@H]21)C(=O)O)C(=O)O)C(=O)O | Active |
| CC(=O)N[C@H]1C(O)O[C@H](CO)[C@@H](O)[C@@H]1O[C@H](C)C(=O)N[C@@H](C)C(=O)N[C@H](CCC(=O)N[C@@H](CCCCNC(=O)CCCC[C@@H]1SC[C@@H]2NC(=O)N[C@@H]21)C(=O)O)C(=O)O (some centres not stated) | Active |
| CC(=O)N[C@H]1[C@@H](OP(=O)(O)OP(=O)(O)OC[C@H]2O[C@@H](n3ccc(=O)[nH]c3=O)[C@H](O)[C@@H]2O)O[C@H](CO)[C@@H](O)[C@@H]1O[C@H](C)C(=O)N[C@@H](C)C(=O)N[C@H](CCC(=O)N[C@@H](CCC[C@@H](N)C(=O)O)C(=O)O)C(=O)O | Active |
| CC(=O)N[C@H]1[C@@H](OP(=O)(O)OP(=O)(O)OC[C@H]2O[C@@H](n3ccc(=O)[nH]c3=O)[C@H](O)[C@@H]2O)O[C@H](CO)[C@@H](O)[C@@H]1O[C@H](C)C(=O)N[C@@H](C)C(=O)N[C@H](CCC(=O)N[C@@H](CCCCNC(=O)CCCC[C@@H]1SC[C@@H]2NC(=O)N[C@@H]21)C(=O)O)C(=O)O | Active |
| CC(=O)N[C@H]1C(O)O[C@H](CO)[C@@H](O)[C@@H]1O[C@H](C)C(=O)N[C@@H](C)C(=O)N[C@H](CCC(=O)N[C@@H](CCCCN)C(=O)O)C(=O)O (some centres not stated) | Active |
| CC(=O)N[C@H]1C(O)O[C@H](CO)[C@@H](O)[C@@H]1O[C@H](C)C(=O)N[C@@H](C)C(=O)N[C@H](CCC(=O)O)C(N)=O (some centres not stated) | Active |
| CC(=O)N[C@H]1[C@@H](OP(=O)(O)OP(=O)(O)OC[C@H]2O[C@@H](n3ccc(=O)[nH]c3=O)[C@H](O)[C@@H]2O)O[C@H](CO)[C@@H](O)[C@@H]1O[C@H](C)C(=O)N[C@@H](C)C(=O)N[C@H](CCC(=O)N[C@@H](CCCCNC(=O)CCCCCNC(=O)CCCCCNC(=O)CCCC[C@@H]1SC[C@@H]2NC(=O)N[C@@H]21)C(=O)O)C(=O)O | Active |
| CC(=O)N[C@H]1C(O)O[C@H](CO)[C@@H](O)[C@@H]1O[C@H](C)C(=O)N[C@@H](C)C(=O)N[C@H](CCC(=O)N[C@@H](CCC[C@@H](NC(=O)CCCC[C@@H]1SC[C@@H]2NC(=O)N[C@@H]21)C(=O)O)C(=O)O)C(=O)O (some centres not stated) | inactive |
| CC(=O)N[C@H]1[C@@H](OP(=O)(O)OP(=O)(O)OC[C@H]2O[C@@H](n3ccc(=O)[nH]c3=O)[C@H](O)[C@@H]2O)O[C@H](CO)[C@@H](O)[C@@H]1O[C@H](C)C(=O)N[C@@H](C)C(=O)N[C@H](CCC(=O)N[C@@H](CCCCN)C(=O)O)C(=O)O | Active |
